Results reported in patent US20190010167A1, “INHIBITORS OF THE MENIN-MLL INTERACTION” (Vitae Pharmaceuticals, Inc., priority 2015, published 2019).

Each molecule was assayed against T1, wild-type menin / MLL-AF9 fusion protein (Homo sapiens, UniProt O00255) (assay: AlphaLISA menin/MLL binding assay, wild-type menin (Assay 1)). Settings: biotinylated wild-type menin 5 nM, MLL-AF9-FLAG lysate.
T1 construct: made in house; host or cells: E. coli (menin); HEK293 cleared lysate (MLL-AF9-FLAG)
T1 sequence (O00255 1-610): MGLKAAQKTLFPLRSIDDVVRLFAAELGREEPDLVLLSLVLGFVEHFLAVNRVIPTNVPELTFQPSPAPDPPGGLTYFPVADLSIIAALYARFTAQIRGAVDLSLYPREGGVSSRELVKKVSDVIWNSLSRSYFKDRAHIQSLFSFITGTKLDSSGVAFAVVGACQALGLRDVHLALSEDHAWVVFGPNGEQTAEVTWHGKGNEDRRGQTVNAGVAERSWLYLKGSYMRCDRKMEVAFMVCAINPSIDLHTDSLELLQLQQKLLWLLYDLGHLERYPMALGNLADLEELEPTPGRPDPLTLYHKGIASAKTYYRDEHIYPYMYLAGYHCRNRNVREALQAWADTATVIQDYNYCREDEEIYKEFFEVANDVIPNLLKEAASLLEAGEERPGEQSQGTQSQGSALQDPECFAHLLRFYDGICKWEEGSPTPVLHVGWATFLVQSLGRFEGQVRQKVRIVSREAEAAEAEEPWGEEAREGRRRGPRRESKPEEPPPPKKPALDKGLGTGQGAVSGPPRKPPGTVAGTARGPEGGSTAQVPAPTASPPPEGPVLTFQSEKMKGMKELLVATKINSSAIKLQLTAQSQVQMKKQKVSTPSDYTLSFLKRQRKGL
Procedure: Potencies of inhibitor compounds against menin/MLL binding were assessed by AlphaLISA assay using biotinylated (1) wild-type menin or (2) mutated menin (described in Nature (2012) Vol. 482, pp. 542-548) and MLL-AF9 fusion protein bearing a FLAG epitope at its C-terminus. Menin proteins were expressed in E. coli and covalently modified with biotin using EZ-Link™ Sulfo-NHS-Biotin (ThermoFisher Cat. No. 21217) according to manufacturer's protocol. MLL1-1,396 fused to AF91-92 and the C-terminal FLAG peptide was expressed in HEK293 cells and used as a lysate cleared at 21,000×g for 10 min.
Compounds (2 μL of solutions in DMSO) were dispensed in white 96-well half-area plates (Corning Cat. No. 3693) and incubated for 30 min at RT with 5 nM biotinylated menin and appropriate amount of MLL-AF9-FLAG lysate in 40 μL of 50 mM Tris-HCl buffer pH 7.4 containing 5% (v/v) DMSO, 50 mM NaCl, 0.01% (w/v) bovine serum albumin (BSA) and 1 mM DTT. To this incubation mixture, 40 μl of AlphaLISA anti-FLAG acceptor (PerkinElmer Cat. No. AL112C) and streptavidin donor (PerkinElmer Cat. No. 6760002) beads (10 μg/mL each) was added and incubation continued at RT for 60 min. Alpha (amplified luminescent proximity homogeneous assay) signal was measured on an Envision multi-label plate reader at the end of the incubation. All steps were conducted under dim fluorescent light.
These percent inhibition values were regressed against compound concentrations in the assay using four parameter logit non-linear curve fitting (XLFit, IDBS). The IC50 values were derived from the curve fitting as inflection points on the dose-response curves and are set out in Table 1 below.
Molecule COC(=O)N[C@H]1CC[C@@H](CN2CCC3(CCN(c4ncnc5sc(CC(F)(F)F)cc45)C3)C2)CC1 (stereo partly drawn) [Example 51, Methyl ((1s,4s)-4-((7-(6-(2,2,2-trifluoroethyl)thieno[2,3-d]pyrimidin-4-yl)-2,7-diazaspiro[4.4]nonan-2-yl)methyl)cyclohexyl)carbamate] has an IC50 of 0.1 to 1 µM. COC(=O)Nc1cccc(CN2CCC3(CCN(c4ncnc5sc(CC(F)(F)F)cc45)C3)C2)c1 (stereo not drawn) [Example 53, methyl (3-((7-(6-(2,2,2-trifluoroethyl)thieno[2,3-d]pyrimidin-4-yl)-2,7-diazaspiro[4.4]nonan-2-yl)methyl)phenyl)carbamate] gave an IC50 of less than 0.1 µM. O=C(C1CCCNC1)N1CCC2(CCN(c3ncnc4sc(CC(F)(F)F)cc34)C2)C1 (stereo not drawn) [Example 55, piperidin-3-yl(7-(6-(2,2,2-trifluoroethyl)thieno[2,3-d]pyrimidin-4-yl)-2,7-diazaspiro[4.4]nonan-2-yl)methanone] gave an IC50 of 0.1 to 1 µM. For O=C(C1CCCCN1)N1CCC2(CCN(c3ncnc4sc(CC(F)(F)F)cc34)C2)C1 (stereo not drawn) [Example 56, piperidin-2-yl(7-(6-(2,2,2-trifluoroethyl)thieno[2,3-d]pyrimidin-4-yl)-2,7-diazaspiro[4.4]nonan-2-yl)methanone], the IC50 was 0.1 to 1 µM. Work on O=C([C@@H]1CCCN1)N1CCC2(CCN(c3ncnc4sc(CC(F)(F)F)cc34)C2)C1 (stereo partly drawn) [Example 57, 4-(7-prolyl-2,7-diazaspiro[4.4]nonan-2-yl)-6-(2,2,2-trifluoroethyl)thieno[2,3-d]pyrimidine] yielded an IC50 of 0.1 to 1 µM. For O=C1N(Cc2ccccc2)CCC12CCN(c1ncnc3sc(CC(F)(F)F)cc13)C2 (stereo not drawn) [Example 59, 2-benzyl-7-(6-(2,2,2-trifluoroethyl)thieno[2,3-d]pyrimidin-4-yl)-2,7-diazaspiro[4.4]nonan-1-one], the IC50 was no less than 1 µM. Molecule CS(=O)(=O)c1ccc(CC(=O)N2CC3(C2)CN(c2ncnc4sc(CC(F)(F)F)cc24)C3)cc1 [Example 62, 2-(4-(methylsulfonyl)phenyl)-1-(6-(6-(2,2,2-trifluoroethyl)thieno[2,3-d]pyrimidin-4-yl)-2,6-diazaspiro[3.3]heptan-2-yl)ethan-1-one] has an IC50 of 0.1 to 1 µM. In the case of CC1(C)CCC(CN2CC3(C2)CN(c2ncnc4sc(CC(F)(F)F)cc24)C3)CC1 [Example 64, 4-(6-((4,4-dimethylcyclohexyl)methyl)-2,6-diazaspiro[3.3]heptan-2-yl)-6-(2,2,2-trifluoroethyl)thieno[2,3-d]pyrimidine], the IC50 is reported as 0.1 to 1 µM. Work on Cc1c(CN2CC3(C2)CN(c2ncnc4sc(CC(F)(F)F)cc24)C3)ccc2[nH]c(C#N)cc12 [Example 67, 4-methyl-5-((6-(6-(2,2,2-trifluoroethyl)thieno[2,3-d]pyrimidin-4-yl)-2,6-diazaspiro[3.3]heptan-2-yl)methyl)-1H-indole-2-carbonitrile] yielded an IC50 of 0.1 to 1 µM. For FC(F)(F)Cc1cc2c(N3CC4(CN(CC5CCC(F)(F)CC5)C4)C3)ncnc2s1 [Example 70, 4-(6-((4,4-difluorocyclohexyl)methyl)-2,6-diazaspiro[3.3]heptan-2-yl)-6-(2,2,2-trifluoroethyl)thieno[2,3-d]pyrimidine], the IC50 was 0.1 to 1 µM. For CCS(=O)(=O)N[C@H]1CC[C@H](CN2CC3(C2)CN(c2ncnc4sc(CC(F)(F)F)cc24)C3)CC1 [Example 71, N-((1r,4r)-4-((6-(6-(2,2,2-trifluoroethyl)thieno[2,3-d]pyrimidin-4-yl)-2,6-diazaspiro[3.3]heptan-2-yl)methyl)cyclohexyl)ethanesulfonamide], the IC50 was 0.1 to 1 µM. O=S(=O)(N[C@H]1CC[C@H](CN2CC3(C2)CN(c2ncnc4sc(CC(F)(F)F)cc24)C3)CC1)C1CC1 [Example 72, N-((1r,4r)-4-((6-(6-(2,2,2-trifluoroethyl)thieno[2,3-d]pyrimidin-4-yl)-2,6-diazaspiro[3.3]heptan-2-yl)methyl)cyclohexyl)cyclopropanesulfonamide] gave an IC50 of 0.1 to 1 µM. Molecule FC(F)(F)Cc1cc2c(N3CC4(CN(CC5COC5)C4)C3)ncnc2s1 [Example 73, 4-(6-(oxetan-3-ylmethyl)-2,6-diazaspiro[3.3]heptan-2-yl)-6-(2,2,2-trifluoroethyl)thieno[2,3-d]pyrimidine] has an IC50 of no less than 1 µM. FC(F)(F)Cc1cc2c(N3CC4(CN(CC5CC(F)(F)C5)C4)C3)ncnc2s1 [Example 74, 4-(6-((3,3-difluorocyclobutyl)methyl)-2,6-diazaspiro[3.3]heptan-2-yl)-6-(2,2,2-trifluoroethyl)thieno[2,3-d]pyrimidine] gave an IC50 of no less than 1 µM. With CC(C)(N)CC(=O)N1CC2(C1)CN(c1ncnc3sc(CC(F)(F)F)cc13)C2 [Example 77, 3-amino-3-methyl-1-(6-(6-(2,2,2-trifluoroethyl)thieno[2,3-d]pyrimidin-4-yl)-2,6-diazaspiro[3.3]heptan-2-yl)butan-1-one] the IC50 was 0.1 to 1 µM. Molecule O=C(C1CCCNC1)N1CC2(C1)CN(c1ncnc3sc(CC(F)(F)F)cc13)C2 (stereo not drawn) [Example 78, piperidin-3-yl(6-(6-(2,2,2-trifluoroethyl)thieno[2,3-d]pyrimidin-4-yl)-2,6-diazaspiro[3.3]heptan-2-yl)methanone] has an IC50 of 0.1 to 1 µM. In the case of O=C(C1CCCCN1)N1CC2(C1)CN(c1ncnc3sc(CC(F)(F)F)cc13)C2 (stereo not drawn) [Example 79, piperidin-2-yl(6-(6-(2,2,2-trifluoroethyl)thieno[2,3-d]pyrimidin-4-yl)-2,6-diazaspiro[3.3]heptan-2-yl)methanone], the IC50 is reported as 0.1 to 1 µM. CC(C)N1CC2(CCN(c3ncnc4sc(CC(F)(F)F)nc34)CC2)C1 [Example 80, 7-(2-isopropyl-2,7-diazaspiro[3.5]nonan-7-yl)-2-(2,2,2-trifluoroethyl)thiazolo[5,4-d]pyrimidine] gave an IC50 of no less than 1 µM. For CC(C)CN1CC2(CCN(c3ncnc4sc(CC(F)(F)F)nc34)CC2)C1 [Example 81, 7-(2-isobutyl-2,7-diazaspiro[3.5]nonan-7-yl)-2-(2,2,2-trifluoroethyl) thiazolo[5,4-d]pyrimidine], the IC50 was no less than 1 µM. In the case of FC(F)(F)Cc1nc2c(N3CCC4(CCN(Cc5ccccc5)C4)C3)ncnc2s1 (stereo not drawn) [Example 82, 7-(7-benzyl-2,7-diazaspiro[4.4]nonan-2-yl)-2-(2,2,2-trifluoroethyl)thiazolo[5,4-d]pyrimidine], the IC50 is reported as 0.1 to 1 µM. Molecule Cc1c(CN2CCC3(CCN(c4ncnc5sc(CC(F)(F)F)nc45)C3)C2)ccc2[nH]c(C#N)cc12 (stereo not drawn) [Example 83, 4-methyl-5-((7-(2-(2,2,2-trifluoroethyl)thiazolo[5,4-d]pyrimidin-7-yl)-2,7-diazaspiro[4.4]nonan-2-yl)methyl)-1H-indole-2-carbonitrile] has an IC50 of less than 0.1 µM. Work on CS(=O)(=O)Nc1ccc(CN2CCC3(CCN(c4ncnc5sc(CC(F)(F)F)nc45)C3)C2)cc1 (stereo not drawn) [Example 84, N-(4-((7-(2-(2,2,2-trifluoroethyl)thiazolo[5,4-d]pyrimidin-7-yl)-2,7-diazaspiro[4.4]nonan-2-yl)methyl)phenyl)methanesulfonamide] yielded an IC50 of less than 0.1 µM. With CC(C)CN1CC2(CCN(c3ccnc4ccc(CC(F)(F)F)cc34)CC2)C1 [Example 85, 4-(2-isobutyl-2,7-diazaspiro[3.5]nonan-7-yl)-6-(2,2,2-trifluoroethyl)quinoline] the IC50 was no less than 1 µM. FC(F)(F)Cc1ccc2nccc(N3CCC4(CC3)CN(CC3CC3)C4)c2c1 [Example 87, 4-(2-(cyclopropylmethyl)-2,7-diazaspiro[3.5]nonan-7-yl)-6-(2,2,2-trifluoroethyl)quinoline] was tested, and the IC50 was no less than 1 µM. CC(C)CN1CC2(CCN(c3ncnc4ccc(CC(F)(F)F)cc34)CC2)C1 [Example 89, 4-(2-isobutyl-2,7-diazaspiro[3.5]nonan-7-yl)-6-(2,2,2-trifluoroethyl) quinazoline] gave an IC50 of no less than 1 µM. FC(F)(F)Cc1ccc2ncnc(N3CC4(CN(CC5CCOCC5)C4)C3)c2c1 [Example 91, 4-(6-((tetrahydro-2H-pyran-4-yl)methyl)-2,6-diazaspiro[3.3]heptan-2-yl)-6-(2,2,2-trifluoroethyl)quinazoline] showed an IC50 of no less than 1 µM. With CCC(C)CN1CCC2(C1)CN(c1ncnc3sc(CC(F)(F)F)cc13)C2 (stereo not drawn) [Example 94, 4-(6-(2-methylbutyl)-2,6-diazaspiro[3.4]octan-2-yl)-6-(2,2,2-trifluoroethyl)thieno[2,3-d]pyrimidine] the IC50 was 0.1 to 1 µM.
